Source: PMC12412615, “Tailored SirReal-type inhibitors enhance SIRT2 inhibition through ligand stabilization and disruption of NAD^+ co-factor binding” (RSC Medicinal Chemistry, 2025)

Assays:
[1] = target: T1, SIRT2 (Homo sapiens, UniProt Q8IXJ6); test: Fluorescence thermal shift assay of SIRT2
T1 sequence (Q8IXJ6 1-389): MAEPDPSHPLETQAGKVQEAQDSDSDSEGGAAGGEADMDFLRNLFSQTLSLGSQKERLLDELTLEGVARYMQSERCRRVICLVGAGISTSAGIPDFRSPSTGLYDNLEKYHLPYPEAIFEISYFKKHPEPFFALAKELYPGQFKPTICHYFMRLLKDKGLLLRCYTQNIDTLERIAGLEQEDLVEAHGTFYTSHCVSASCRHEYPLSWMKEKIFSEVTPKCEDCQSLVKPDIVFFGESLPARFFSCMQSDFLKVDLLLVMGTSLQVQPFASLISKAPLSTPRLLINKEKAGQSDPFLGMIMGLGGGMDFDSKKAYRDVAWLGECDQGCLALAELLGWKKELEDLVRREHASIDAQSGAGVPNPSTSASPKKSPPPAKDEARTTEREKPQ
Procedure: The thermal stability of SIRT2 was determined in the presence of 10 μM and 30 μM inhibitor and in the presence and absence of 2.5 mM co-factor NAD^+.
All melting temperature shifts measured were referenced to the melting temperature of SIRT2 without inhibitor, also in the presence and absence of the co-factor.
Fluorescence thermal shift assays were performed in white 96-well plates (Hard-Shell PCR Plates, BioRad, USA) with a total volume of 20 μL per well and a final DMSO concentration of 5% (v/v), following a published protocol.[19,21] […] The compounds were prepared as 10 mM stock solutions in DMSO and diluted in the assay such that a final DMSO concentration of 5% (v/v) was achieved. If necessary, NAD^+ was added to a final concentration of 2.5 mM. […] Melting temperatures were determined using GraphPad Prism, following a published procedure.[52]

[2] = target: T2, human SIRT3 (Homo sapiens, UniProt Q9NTG7); test: Fluorescence-based sirtuin subtype selectivity assay, SIRT3, single dose 50 μM; format: biochemical; conditions: 50 μM compound; mean, n = 2
T2 construct: purchased Reaction Biology Corporation (Malvern, USA), contract assay
T2 sequence (Q9NTG7 1-399): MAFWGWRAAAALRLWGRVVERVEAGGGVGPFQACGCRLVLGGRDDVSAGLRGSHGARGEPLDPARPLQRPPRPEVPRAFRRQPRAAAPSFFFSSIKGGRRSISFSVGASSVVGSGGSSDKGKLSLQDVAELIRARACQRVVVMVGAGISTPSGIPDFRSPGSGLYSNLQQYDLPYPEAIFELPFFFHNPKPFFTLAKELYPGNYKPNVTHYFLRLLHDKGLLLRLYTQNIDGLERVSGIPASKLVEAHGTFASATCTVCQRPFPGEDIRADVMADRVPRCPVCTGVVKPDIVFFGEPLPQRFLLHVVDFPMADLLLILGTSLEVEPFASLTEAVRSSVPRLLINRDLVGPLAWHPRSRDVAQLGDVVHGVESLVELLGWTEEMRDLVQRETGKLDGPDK
Procedure: (§1) IC50 values against SIRT2 are given as mean with standard deviations (n = 3). Inhibition percentages at 50 μM for SIRT1, 3 and 5 are given as mean without standard deviations (n = 2)
(§2) The determination of subtype selectivity against SIRT1, 3 and 5 was performed by measuring the residual enzyme activity after treatment with the corresponding inhibitor at a fixed concentration of 50 μM and subsequent calculation of the percentage inhibition.
(§3) The determination of inhibitory activity on the corresponding sirtuin enzymes was carried out based on a fluorescence-based assay commissioned by Reaction Biology Corporation (Malvern, USA) following an internal experimental protocol. Test substances were prepared in DMSO, delivered into the respective enzyme mixture (prepared with reaction buffer: Tris-HCl, pH = 8) and incubated for 10 minutes at 30 °C. Subsequently the substrate mixture (NAD^+ and a 7-amino-4-methylcoumarin-based fluorogenic peptide substrate) was added to initiate the deacetylation reaction. After 2 hours incubation at 30 °C, 2 mM nicotinamide (universal sirtuin inhibitor, to stop the reaction) and protease-based developer (to generate fluorescence by the cleavage of 7-amino-4-methylcoumarin) was added. At 30 °C 1 hour later, the respective fluorescence was measured (extinction/emission = 360 nm/460 nm). The inhibitory effect of the test compounds is indirectly proportional to the amount of converted fluorescent substrate standardized as 100% activity of the control without inhibitor. The test substances were tested in 10-dose IC50 triplicate mode, with 3-fold serial dilution starting at 50 μM final reaction concentration and if necessary, starting at 100 μM. For each serially diluted replicate of the triplicate, an IC50 value was determined by sigmoidal curve fitting, resulting in three IC50 values, from which the mean and corresponding standard deviation were subsequently calculated. Data processing was performed based on Prism 8.0.2 software (GraphPad Software, Boston, USA). Subtype selectivity on SIRT1, SIRT3 and SIRT5 was evaluated in a single dose duplicate mode at 50 μM final test compound concentration according to previous outlined internal protocol of Reaction Biology Corporation by determining the enzyme activity of the respective sirtuins in % (no inhibitor control as 100% activity).

[3] = target: T3, human SIRT1 (Homo sapiens, UniProt Q96EB6); test: Fluorescence-based sirtuin subtype selectivity assay, SIRT1, single dose 50 μM; format: biochemical; conditions: 50 μM compound; mean, n = 2
T3 construct: purchased Reaction Biology Corporation (Malvern, USA), contract assay
T3 sequence (Q96EB6 1-747): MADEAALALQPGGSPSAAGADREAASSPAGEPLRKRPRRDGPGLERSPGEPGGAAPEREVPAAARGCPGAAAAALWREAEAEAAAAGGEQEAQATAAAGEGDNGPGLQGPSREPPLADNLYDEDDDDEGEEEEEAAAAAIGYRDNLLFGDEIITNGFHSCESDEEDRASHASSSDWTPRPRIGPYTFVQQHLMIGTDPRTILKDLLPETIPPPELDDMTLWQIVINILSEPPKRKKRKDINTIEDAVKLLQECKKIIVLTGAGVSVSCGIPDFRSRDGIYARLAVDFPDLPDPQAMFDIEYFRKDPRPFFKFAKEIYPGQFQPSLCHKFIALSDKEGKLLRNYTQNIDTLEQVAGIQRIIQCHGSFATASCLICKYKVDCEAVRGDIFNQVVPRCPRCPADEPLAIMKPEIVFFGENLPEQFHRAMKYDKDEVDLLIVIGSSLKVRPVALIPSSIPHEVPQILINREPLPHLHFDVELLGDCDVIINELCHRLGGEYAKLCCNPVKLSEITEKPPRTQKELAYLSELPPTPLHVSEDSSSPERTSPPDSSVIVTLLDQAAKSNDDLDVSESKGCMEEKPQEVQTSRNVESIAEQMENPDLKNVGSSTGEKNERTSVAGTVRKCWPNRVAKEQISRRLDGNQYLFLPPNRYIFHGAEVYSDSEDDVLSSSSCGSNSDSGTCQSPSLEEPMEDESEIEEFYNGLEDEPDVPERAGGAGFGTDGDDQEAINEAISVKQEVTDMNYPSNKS
Procedure: as §1, §2, §3

[4] = target: T4, human SIRT5 (Homo sapiens, UniProt Q9NXA8); test: Fluorescence-based sirtuin subtype selectivity assay, SIRT5, single dose 50 μM; format: biochemical; conditions: 50 μM compound; mean, n = 2
T4 construct: purchased Reaction Biology Corporation (Malvern, USA), contract assay
T4 sequence (Q9NXA8 37-310): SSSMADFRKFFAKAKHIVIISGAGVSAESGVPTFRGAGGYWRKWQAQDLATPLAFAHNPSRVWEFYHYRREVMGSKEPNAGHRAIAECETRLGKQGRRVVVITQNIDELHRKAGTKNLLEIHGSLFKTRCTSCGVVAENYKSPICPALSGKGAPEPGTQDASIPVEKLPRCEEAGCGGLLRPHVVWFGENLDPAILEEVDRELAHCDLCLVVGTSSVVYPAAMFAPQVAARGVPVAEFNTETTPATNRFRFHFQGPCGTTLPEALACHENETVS
Procedure: as §1, §2, §3

**Q.** With `Cc1cc(C)nc(SCC(=O)Nc2cccc(COc3ccc(NC(=O)c4cnn(C)c4)c(Cl)c3)c2)n1` [Compound 29, N-(2-Chloro-4-((3-(2-((4,6-dimethylpyrimidin-2-yl)thio)acetamido)benzyl)oxy)phenyl)-1-methyl-1H-pyrazole-4-carboxamide] as the compound, how does the “NAD+ dependency of inhibitor-induced SIRT2 melting temperature increase” value ([1]; presence and absence of 2.5 mM NAD+) read?
**A.** increases the melting temperature of SIRT2 independently of NAD^+

**Q.** What about the ΔTm at 30 µM ([1]; read-out: ΔT, increase in the melting temperature of SIRT2) of the same compound?
**A.** 6.5 °C

**Q.** And the inhibition at 50 µM [2]?
**A.** 26%

**Q.** And the inhibition at 50 µM [3]?
**A.** 12%

**Q.** And the inhibition at 50 µM [4]?
**A.** 7%
